In PubChem BioAssay AID1919004 (Molecular Pharmacology Branch, DTP, NCI, 2023):
pIC50: −log10 of the molar value. Several values for one entry are separate records, joined by “and”; a condition that tells them apart may be missing. Identical values can stand only once.

System: 883617-216-R-J1-PDC complex spheroids, growth, % test/control
Assay: Anticancer human tumor 883617-216-R-J1-PDC patient-derived bladder carcinoma cell line growth inhibition [AhR]
Conditions: for viability, T/C: stronger effect = lower value
How it was run: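 Spheroids combined tumor cells with HUVEC endothelial cells and human MSCs as stroma. AhR antagonists were paired with standard or investigational drugs, each dosed in half-log steps down from near clinical Cmax, or from 10 microM where Cmax was unknown.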

[1] = curve of first compound, second compound 0.1 µM
[2] = curve of first compound, second compound 0.316 µM
[3] = curve of first compound, second compound 1 µM
[4] = curve of first compound, second compound 3.16 µM
[5] = curve of first compound, second compound 10 µM
[6] = second compound 0.1 µM, first compound 0.0316 µM
[7] = second compound 0.1 µM, first compound 0.1 µM
[8] = second compound 0.1 µM, first compound 0.316 µM
[9] = second compound 0.1 µM, first compound 1 µM
[10] = second compound 0.1 µM, first compound 3.16 µM
[11] = second compound 0.1 µM, first compound 10 µM
[12] = second compound 0.316 µM, first compound 0.0316 µM
[13] = second compound 0.316 µM, first compound 0.1 µM
[14] = second compound 0.316 µM, first compound 0.316 µM
[15] = second compound 0.316 µM, first compound 1 µM
[16] = second compound 0.316 µM, first compound 3.16 µM
[17] = second compound 0.316 µM, first compound 10 µM
[18] = second compound 1 µM, first compound 0.0316 µM
[19] = second compound 1 µM, first compound 0.1 µM
[20] = second compound 1 µM, first compound 0.316 µM
[21] = second compound 1 µM, first compound 1 µM
[22] = second compound 1 µM, first compound 3.16 µM
[23] = second compound 1 µM, first compound 10 µM
[24] = second compound 3.16 µM, first compound 0.0316 µM
[25] = second compound 3.16 µM, first compound 0.1 µM
[26] = second compound 3.16 µM, first compound 0.316 µM
[27] = second compound 3.16 µM, first compound 1 µM
[28] = second compound 3.16 µM, first compound 3.16 µM
[29] = second compound 3.16 µM, first compound 10 µM
[30] = second compound 10 µM, first compound 0.0316 µM
[31] = second compound 10 µM, first compound 0.1 µM
[32] = second compound 10 µM, first compound 0.316 µM
[33] = second compound 10 µM, first compound 1 µM
[34] = second compound 10 µM, first compound 3.16 µM
[35] = second compound 10 µM, first compound 10 µM
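Further: exposure lasted 7 days after dosing on day 3 of spheroid growth.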

pIC50 [1]	pIC50 [2]	pIC50 [3]	pIC50 [4]	pIC50 [5]	SMILES	viability, T/C [6] [%]	viability, T/C [7] [%]	viability, T/C [8] [%]	viability, T/C [9] [%]	viability, T/C [10] [%]	viability, T/C [11] [%]	viability, T/C [12] [%]	viability, T/C [13] [%]	viability, T/C [14] [%]	viability, T/C [15] [%]	viability, T/C [16] [%]	viability, T/C [17] [%]	viability, T/C [18] [%]	viability, T/C [19] [%]	viability, T/C [20] [%]	further results
6.41	6.36	6.39	6.40	> 7.50	COc1cccc2c1C(=O)c1c(O)c3c(c(O)c1C2=O)CC(O)(C(=O)CO)CC3OC1CC(N)C(O)C(C)O1 (configuration not stated) + Cc1cncc(-c2nc(NCCc3c[nH]c4ccccc34)c3ncn(C(C)C)c3n2)c1	74.5	66.3	57.9	18.8	0.11	0.16	65.3	62.6	64.4	14	0.05	0.15	81.8	74.5	62.1	viability, T/C [21]: 5.5%; viability, T/C [22]: 0.05%; viability, T/C [23]: 1.21%; viability, T/C [24]: 77.1%; viability, T/C [25]: 75%; viability, T/C [26]: 62.7%; viability, T/C [27]: 0.89%; viability, T/C [28]: 0.17%; viability, T/C [29]: 1.17%; viability, T/C [30]: 41.7%; viability, T/C [31]: 37.4%; viability, T/C [32]: 34.3%; viability, T/C [33]: 0.82%; viability, T/C [34]: 0.12%; viability, T/C [35]: 0.16%
					O=C(c1cc(Cc2n[nH]c(=O)c3ccccc23)ccc1F)N1CCN(C(=O)C2CC2)CC1																viability, T/C (compound 0.0316 µM): 101% and 100% and 93%; viability, T/C (compound 0.1 µM): 89.1% and 106% and 100%; viability, T/C (compound 0.316 µM): 95.9% and 94.9% and 112%; viability, T/C (compound 1 µM): 85.9% and 97.1% and 102%; viability, T/C (compound 3.16 µM): 88% and 93.1% and 105%; viability, T/C (compound 10 µM): 70.5% and 76.4% and 105%; pIC50 (curve of compound): < 5.00
6.57	6.34	6.30	6.64	6.78	COc1cccc2c1C(=O)c1c(O)c3c(c(O)c1C2=O)CC(O)(C(=O)CO)CC3OC1CC(N)C(O)C(C)O1 (configuration not stated) + CC(CO)NC(=O)c1cc(-c2ccc(Cl)cc2)nn(-c2cnn(C)c2)c1=O	115	116	39.2	4.71	2.59	1.67	90.5	94.2	70.9	4.94	5.79	4.67	95.2	93.9	82.1	viability, T/C [21]: 1.75%; viability, T/C [22]: 2.44%; viability, T/C [23]: 1.47%; viability, T/C [24]: 91.5%; viability, T/C [25]: 107%; viability, T/C [26]: 31.2%; viability, T/C [27]: 3.13%; viability, T/C [28]: 3.56%; viability, T/C [29]: 0.65%; viability, T/C [30]: 113%; viability, T/C [31]: 65.8%; viability, T/C [32]: 32.6%; viability, T/C [33]: 1.76%; viability, T/C [34]: 1.75%; viability, T/C [35]: 1.1%
